From PubChem BioAssay (NCI)
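Interpolation was linear, between the two tested concentrations surrounding the appropriate level; five concentrations were tested over 48 hours in 96-well plates. TGI denotes the concentration required for complete inhibition of growth.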

Tests used:
Assay in all cases: inhibition of tumour cell growth, NCI panel, 48 h
SF-295 CNS = tested on: SF-295 CNS
UO-31 renal = tested on: UO-31 renal
SN12C renal = tested on: SN12C renal
RXF 393 renal = tested on: RXF 393 renal
A549 NSCLC = tested on: A549 NSCLC
SK-OV-3 ovarian = tested on: SK-OV-3 ovarian
NCI-H226 lung = tested on: NCI-H226 lung
NCI-H460 lung = tested on: NCI-H460 lung
DLD-1 colon = tested on: DLD-1 colon
DMS 273 small cell lung = tested on: DMS 273 small cell lung
HOP-18 NSCLC = tested on: HOP-18 NSCLC
LXFL 529 NSCLC = tested on: LXFL 529 NSCLC

SMILES	TGI (SF-295 CNS)	TGI (UO-31 renal)	TGI (SN12C renal)	TGI (RXF 393 renal)	TGI (A549 NSCLC)	TGI (SK-OV-3 ovarian)	TGI (NCI-H226 lung)	TGI (NCI-H460 lung)	TGI (DLD-1 colon)	TGI (DMS 273 small cell lung)	TGI (HOP-18 NSCLC)	TGI (LXFL 529 NSCLC)
COc1cc(CCNC2=CC(=O)c3cccnc3C2=O)ccc1O	2.6 µM	2.83 µM	2.43 µM	4.07 µM	3.27 µM	11.1 µM	3.53 µM	2.65 µM				
CCOC(O)C(F)(F)F (stereo unspecified)	> 100 µM	> 100 µM	> 100 µM	> 100 µM	> 100 µM	> 100 µM	> 100 µM	> 100 µM				
CC(/C=N/N(C)C1=NCCCCN1)=N/N(C)C1=NCCCCN1	> 100 µM	> 100 µM	> 100 µM	> 100 µM	> 100 µM	> 100 µM	> 100 µM	> 100 µM				
CC1(CCc2ccccc2)CC1(Br)Br (stereo unspecified)	> 100 µM	> 100 µM	38.1 µM	41.2 µM	> 100 µM	> 100 µM	77.1 µM	> 100 µM				
CC(C)=CC(C)C(C(O)CCC1(c2ccoc2)OCCO1)S(=O)(=O)c1ccccc1 (stereo unspecified)	> 100 µM	> 100 µM	> 100 µM	> 100 µM	> 100 µM	> 100 µM	> 100 µM	> 100 µM				
N#Cc1ccc(/C=N/NC(=O)CSCC(=O)N/N=C/c2ccc(C#N)cc2)cc1	> 100 µM	> 100 µM	> 100 µM	> 100 µM	> 100 µM	> 100 µM	> 100 µM	> 100 µM				
c1ccc2c(c1)CCN(C1=NCCO1)C2	> 10 µM	> 10 µM	> 10 µM	> 10 µM	> 10 µM	> 10 µM	> 10 µM	> 10 µM				
CN1c2ccccc2C(=O)NC12CCN(Cc1ccccc1)CC2	> 100 µM	> 100 µM	> 100 µM	> 100 µM	> 100 µM	> 100 µM	> 100 µM	> 100 µM				
O=C1OC(C2Cc3ccccc3C2=O)c2ccccc21 (stereo unspecified)	> 100 µM	> 100 µM	> 100 µM	> 100 µM	> 100 µM	> 100 µM	> 100 µM	> 100 µM				
N#Cc1ccc(OC(=O)c2ccc(N=C(N)N)cc2)cc1	> 100 µM	> 100 µM	> 100 µM	> 100 µM	> 100 µM	> 100 µM	> 100 µM	> 100 µM				
COC(=O)C1=C(O)C(C(=O)OC)[C@]2(O)[C@H](C(=O)OC)[C@H]1C[C@@H](c1cccc(OC)c1)[C@H]2C(=O)OC (stereo partly specified)	> 100 µM	34.7 µM	65.7 µM	43.1 µM	75.3 µM	66.6 µM	> 100 µM	65.7 µM				
O=C(Nc1ccc(Cl)cc1)c1cccc([N+](=O)[O-])c1O	15.5 µM	6.56 µM	> 74.7 µM	6.67 µM	> 100 µM	13.7 µM	7.95 µM	> 53.5 µM	> 100 µM	23.3 µM	> 100 µM	39.8 µM
CCC(C)NC(=S)N/N=C(\C)c1ccccn1 (stereo unspecified)	> 33.2 µM	16.8 µM	> 100 µM	26.9 µM	> 33.5 µM	> 100 µM	6.83 µM	> 100 µM				
O=C(O)C(F)(F)C(F)(F)C(F)(F)C(F)(F)C(=O)O	> 100 µM	> 100 µM	> 100 µM	> 100 µM	> 100 µM	> 100 µM	> 100 µM	> 100 µM				
O=C1c2n[nH]nc2C(=O)c2n[nH]nc21	> 100 µM	> 100 µM	> 100 µM	> 100 µM	> 100 µM	> 100 µM	> 100 µM	> 100 µM				
C\C=C/C=C/C=C/C(=O)O	> 100 µM	> 100 µM	> 100 µM	> 100 µM	> 100 µM	> 100 µM	> 100 µM	> 100 µM	> 100 µM	> 100 µM	> 100 µM	> 100 µM
[N-]=[N+]=NC1=NNC2(C(=O)N1)c1ccccc1-c1ccccc12	> 100 µM	> 100 µM	> 100 µM	> 100 µM	> 100 µM	> 100 µM	> 100 µM	> 100 µM				
CCSCC(=O)N1CCc2c([nH]c3ccccc23)C1=O	> 100 µM	> 100 µM	> 100 µM	> 100 µM	> 100 µM	> 100 µM	> 100 µM	> 100 µM				
N#CCN1CCCCCc2ccccc21	> 100 µM	> 100 µM	> 100 µM	> 100 µM	> 100 µM	> 100 µM	> 100 µM	> 100 µM				
COC(=O)c1ccc(CCC2=CC(=O)C(Br)=CC2=O)cc1	37.4 µM	29.2 µM	32.5 µM	32.3 µM	36.9 µM	38 µM	30.5 µM	34.5 µM				
CC1(C)C2CCC1(C)C(N/C(=C(/C(Cl)=C(Cl)Cl)[N+](=O)[O-])n1nnc3ccccc31)C2 (stereo unspecified)	52.3 µM	51 µM	> 100 µM	36.5 µM	> 100 µM	> 100 µM	50.3 µM	> 100 µM				
CCOP(=O)(CC1CC(O)(CNc2cc(Cl)nc(N)n2)C1)OCC (stereo unspecified)	> 100 µM	> 100 µM	> 100 µM	> 100 µM	> 100 µM	> 100 µM	> 100 µM	> 100 µM				
O=C(O)CCC(C(=O)O)N1C(=O)c2ccccc2C1=O (stereo unspecified)	> 100 µM	> 100 µM	> 100 µM	> 100 µM	> 100 µM	> 100 µM	> 100 µM	> 100 µM				
CC(=O)Nc1ccc(N2C(=O)CS(=O)(=O)C2c2cccc(Oc3ccccc3)c2)cc1 (stereo unspecified)	36.7 µM	33.8 µM	29.6 µM	39.7 µM	48.8 µM	83.1 µM	35.8 µM	34.7 µM				
O=S(=O)(O)c1ccc2c(N=Nc3ccccc3)c(O)c(S(=O)(=O)O)cc2c1	> 100 µM	> 100 µM	> 100 µM	> 100 µM	> 100 µM	> 100 µM	> 100 µM	> 100 µM				
O=c1[nH]c2nccnc2c2c([N+](=O)[O-])cccc12	> 100 µM	> 100 µM	> 100 µM	> 100 µM	> 100 µM	> 100 µM	> 100 µM	> 100 µM				
